According to article PMC10037499, “High-Throughput Screen Reveals the Structure–Activity Relationship of the Antimicrobial Lasso Peptide Ubonodin” (ACS Central Science, 2023):
Where two headings read alike, the source gives them in different places. Where a SMILES comes first, the peptide text is derived from it.

Key:
B. cenocepacia AU0756 = system: B. cenocepacia AU0756
Protocol: We proceeded to test the antimicrobial activity of the selected variants against two clinical isolates of the Bcc, B. cenocepacia AU0756 and B. cenocepacia AU24362, in broth microdilution assays. […] We revisited these measurements using broth microdilution assays following the Clinical & Laboratory Standards Institute (CLSI) standard.
Broth microdilution assays of the ubonodin variants were conducted using B. cenocepacia AU0756 and B. cenocepacia AU24362 with guidelines provided by the Clinical & Laboratory Standards Institute (CLSI).

[1] = system: RNA polymerase (RNAP) in E. coli MC1061; assay: High-throughput growth-based screen with NGS (enrichment value) for RNA polymerase inhibition; assay type: cell-based; design: key to Experimental observation (enrichment observed in the screen): Dropout: Many variants inhibit RNAP so strongly that they cannot be detected by NGS after IPTG induction (referred to as dropout variants); conditions: Table S4; variants whose MICs were tested
Protocol: The single mutant library was analyzed by NGS at multiple stages of sample preparation (Figure 2A) to track its evolution throughout the screen. Specifically, the frequency of each possible aa variant was computed at each stage by summing up counts for each distinct translated sequence and dividing by the total number of counts for all variants (eq S1, SI Methods). Since cells expressing an RNAP-inhibiting ubonodin variant will have growth defects relative to cells with a nontoxic variant, RNAP-inhibiting ubonodin variants are expected to decrease in frequency throughout the screen.
First, the naïve library (digested PCR products) was sequenced. These digested PCR products were cloned into the pUboABC backbone and transformed into a recA^– cloning strain. This plasmid library was sequenced again to capture any changes upon transformation of the library into E. coli. The change between the naïve library and the cloning transformation library was minimal (Figure S6A). This plasmid library was transformed into the screening strain MC1061, and the plasmid from resulting colonies was also sequenced. The library in MC1061 was grown up en masse in liquid culture to mid log phase, and a portion of the culture was plated. These colonies were scraped, then the plasmid was isolated and sequenced. Finally, the liquid culture was induced with IPTG, after which a portion of the culture was plated and the plasmid was isolated and sequenced. It is key to note that all samples from liquid cultures were plated prior to sequencing to ensure that only viable cells were sequenced. […] The rationale for sequencing at these five different stages was the possibility that leaky expression of uboA would affect the frequency of active mutants prior to IPTG induction. Indeed, we observed that the frequency of some uboA mutants dropped as soon as they were transformed into the screening strain MC1061 while the frequency of other mutants climbed (Figure 2B).
The behavior of the point variants (i.e., variants with a single aa substitution) was examined by calculating their enrichment values, the base-2 logarithm of the ratio of the variant’s frequency at a specific step of the screen to the variant’s frequency in the cloning transformation library (eq S3, Figure S6). The most relevant enrichment value for ubonodin activity is the comparison between the post-IPTG library and the cloning transformation library (Figure 2A). […] Many variants inhibit RNAP so strongly that they cannot be detected by NGS after IPTG induction (referred to as dropout variants). […] Variants with a stop codon mutation and variants containing an aa substitution at Tyr9 or Tyr27 (positions conserved in MccJ25 and shown to be crucial for RNAP inhibition, see Figure S7)[26] have positive enrichment values (1.2–1.7), serving as quality control for the screen (Figure 3A). Strikingly, 63% of point variants decreased in frequency, indicating a high tolerance to aa substitution. […] The positions with active variants are Asn11 through Ser24 in the loop and Asp3, Ser5, and Ala7 in the ring.
The single mutant and double mutant libraries were transformed into E. coli MC1061. Colonies were resuspended in media and subcultured into a larger culture. Aliquots of the cultures were sampled prior to and after induction with 10 μM IPTG and 100 μM IPTG and plated. After 16 h of incubation, the colonies were resuspended in media and plasmids were miniprepped.
Samples were PCR amplified with barcoded primers and combined such that double mutant library samples were over-represented compared to single mutant library samples to provide sufficient coverage of the larger double mutant library. Samples were sequenced using an Illumina MiSeq Micro 300nt and an Illumina NovaSeq 6000 Sequencing System. Downstream analysis of the data was conducted with Python, MATLAB, and R.
V to reduce genomic DNA contamination. One fragment was amplified with Xho I For Lib and a […]

E. coli MC1061 = assay: Spot dilution assay of E. coli producing the ubonodin variant from pUboABC; assay type: cell-based; conditions: variant in pUboABC backbone in E. coli MC1061, induction with 100 μM IPTG, ten-fold serial dilutions, biological duplicates
Protocol: Cultures of E. coli MC1061 transformed with the appropriate plasmids were grown. Aliquots of the cultures were sampled prior to and after induction with 100 μM IPTG, and 10-fold serial dilutions were plated. […]
All cloning was conducted by PCR amplification (using Q5 polymerase), restriction digestion, ligation, (using T4 DNA ligase), and transformation into chemically competent E. coli XL1-Blue. All cloning with a pUboABC backbone was done by plating transformation mixt ures onto Lysogeny Broth (LB) plates supplemented with 100 μg/mL ampicillin and 0.2% w/v glucose, and colonies were inoculated into LB media supplemented with 100 μ g/mL ampicillin and 0.2% w/v glucose to suppress any leaky expression. Cloning for all other plasmid constructs was done by plating transformation mixtures onto Lysogeny Broth (LB) plates supplemented with 100 μ g/ m L ampicillin, and colonies were inoculated into LB media supplemented with 100 μ g/ m L ampicillin.
Plasmids were extracted using Qiagen QIAprep Spin Miniprep Kit and sequence verified using Sanger sequencing. All primer sequences are listed in Table S7, and all plasmid constructs are […]
pUboABC was cloned by amplifying pWC99 with pQE-80 NheI For and pAT8 Nco I Rev.
The amplicon was ligated into pWC99 digested with Nhe I and Nco I. pUboBC was cloned by digesting pUboABC with Nh e I and Nco I and ligating that fragment into pQE-80 digested with Nhe I and Nco I. pUboABC S5H I16P and pUboABCD S5H I16P were cloned with overlap PCR using pWC99 as the template. One fragment was amplified with pQE-80 EcoRI For and S5H I16P Rev v2 and the second fragment was amplified with S5H I16P For v2 and pQE-80 HindII I Rev. […]
All remaining plasmid constructs were cloned with overlap PCR. One fragment was amplified with Xho I For Lib and a mutagenic reverse primer and the second fragment was amplified with NheI Rev Lib and a mutagenic forward primer. The templates and mutagenic […]
The fragments were joined with a second round of PCR and amplified with XhoI For Lib and NheI Rev Lib. Amplicons were ligated into the appropriate plasmid backbone digested with Xho I and Nhe I-HF. The plasmid backbones […]
The appropriate plasmid was transformed into electrocompetent E. coli MC1061, plated onto LB plates supplemented with 100 μ g/ m L ampicillin and 0.2% w/v glucose, and incubated at 30 °C for 16 hours. Colonies were inoculated into LB media supplemented with 100 μ g/ m L ampicillin and 0.2% w/v glucose and grown at 37 °C for 16 hours. These cultures were sub-cultured to an OD600 of 0.02 in 50 mL of LB media supplemented with 100 μg/mL ampicillin in a 250 mL flask. Once the OD600 reached 0.3, a 1 mL aliquot was sampled immediately prior to inducing the cultures with 100 μM isopropyl β-D-1-thiogalactopyranoside (IPTG). The aliquot was washed with Phosphate-Buffered Saline (PBS) two times and ten-fold serial dilutions were spotted onto LB plates supplemented with 100 μ g/ m L ampicillin and 0.2% w/v glucose. For each following timepoint, a 1 mL sample of each culture was withdrawn, washed with PBS two times, and ten- […]
fold serial dilutions were spotted onto LB plates supplemented with 100 μ g/m L ampicillin and 0.2% w/v glucose. Plates were incubated for 16 hours at 37 °C before imaging. […]
250 mL flask. Ten-fold serial dilutions of the culture were plated onto LB plates supplemented with 100 μ g/ m L ampicillin and 0.2% w/v glucose. The cultures were then grown at 37 °C, and once the OD600 reached 0.3, a 1 mL sample of the culture was withdrawn immediately before the cultures were induced with 10 μM or 100 μM IPTG and returned to grow longer. […]
All plates were incubated at 37 °C for 16 hours, after which the number of colonies was counted. Three biological replicates of this assay were done.
Co-Culture of E. coli MC1061 pUboABC and E. coli MC1061 pUboBC pUboABC (0.9 ng) and pUboBC (0.1 ng) were transformed into electrocompetent E. coli MC1061 with a one- hour outgrowth at 37 °C in LB media supplemented with 0.2% w/v glucose. […]

Structure (SMILES)	B. cenocepacia AU0756 MIC (B. cenocepacia AU0756) [µM]	Experimental observation (enrichment observed in the screen) [1]	Inhibits Growth (E. coli MC1061)	MIC (B. cenocepacia AU0756) [µM]	MIC (B. cenocepacia AU0756; broth microdilution, mass basis, strain not named in the sentence (values match AU0756)) [µg/mL]
CC[C@H](C)[C@@H]1NC(=O)[C@H](Cc2c[nH]cn2)NC(=O)CNC(=O)[C@H](CC(=O)O)NC(=O)CNC(=O)CNC(=O)CC[C@@H](C(=O)N[C@@H](Cc2ccc(O)cc2)C(=O)N[C@@H](Cc2ccccc2)C(=O)N[C@@H](CC(N)=O)C(=O)N[C@@H](CCCNC(=N)N)C(=O)N2CCC[C@H]2C(=O)N[C@@H](CCSC)C(=O)N[C@@H](Cc2c[nH]cn2)C(=O)N2CCC[C@H]2C(=O)N[C@@H](Cc2c[nH]cn2)C(=O)N[C@@H](CC(=O)O)C(=O)N[C@@H](Cc2c[nH]c3ccccc23)C(=O)N[C@@H](CCC(N)=O)C(=O)N[C@H](C(=O)N[C@@H](CCSC)C(=O)N[C@@H](CC(=O)O)C(=O)N[C@@H](CO)C(=O)NCC(=O)N[C@@H](Cc2ccc(O)cc2)C(=O)N[C@@H](Cc2ccc(O)cc2)C(=O)NCC(=O)O)[C@@H](C)CC)NC(=O)[C@H](C)NC1=O [S5H I16P] (HELM PEPTIDE1{G.G.D.G.H.I.A.E.Y.F.N.R.P.M.H.P.H.D.W.Q.I.M.D.S.G.Y.Y.G}$PEPTIDE1,PEPTIDE1,1:R1-8:R3$$$V2.0)	8	Dropout	Yes	–	–
CC[C@H](C)[C@H](NC(=O)[C@H](Cc1c[nH]cn1)NC(=O)[C@H](CCSC)NC(=O)[C@@H]1CCCN1C(=O)[C@H](CCCNC(=N)N)NC(=O)[C@H](CC(N)=O)NC(=O)[C@H](Cc1ccccc1)NC(=O)[C@H](Cc1ccc(O)cc1)NC(=O)[C@@H]1CCC(=O)NCC(=O)NCC(=O)N[C@@H](CC(=O)O)C(=O)NCC(=O)N[C@@H](CO)C(=O)N[C@@H]([C@@H](C)CC)C(=O)N[C@@H](C)C(=O)N1)C(=O)NCC(=O)N[C@@H](CC(=O)O)C(=O)N[C@@H](Cc1c[nH]c2ccccc12)C(=O)N[C@@H](CCC(N)=O)C(=O)N[C@H](C(=O)N[C@@H](CCSC)C(=O)N[C@@H](CC(=O)O)C(=O)N[C@@H](CO)C(=O)NCC(=O)N[C@@H](Cc1ccc(O)cc1)C(=O)N[C@@H](Cc1ccc(O)cc1)C(=O)NCC(=O)O)[C@@H](C)CC [H17G] (HELM PEPTIDE1{G.G.D.G.S.I.A.E.Y.F.N.R.P.M.H.I.G.D.W.Q.I.M.D.S.G.Y.Y.G}$PEPTIDE1,PEPTIDE1,1:R1-8:R3$$$V2.0)	0.125 to 0.25	-6.5	Yes	0.125 to 0.25	0.4 to 0.8
CC[C@H](C)[C@H](NC(=O)[C@H](CCC(N)=O)NC(=O)[C@H](Cc1c[nH]c2ccccc12)NC(=O)[C@H](CC(=O)O)NC(=O)[C@H](Cc1c[nH]cn1)NC(=O)[C@@H](NC(=O)[C@H](Cc1c[nH]cn1)NC(=O)[C@H](CCSC)NC(=O)[C@@H]1CCCN1C(=O)[C@H](CCCNC(=N)N)NC(=O)[C@H](CC(N)=O)NC(=O)[C@H](Cc1ccccc1)NC(=O)[C@H](Cc1ccc(O)cc1)NC(=O)[C@@H]1CCC(=O)NCC(=O)NCC(=O)N[C@@H](CC(=O)O)C(=O)NCC(=O)N[C@@H](CO)C(=O)N[C@@H]([C@@H](C)CC)C(=O)N2CCC[C@H]2C(=O)N1)[C@@H](C)CC)C(=O)N[C@@H](CCSC)C(=O)N[C@@H](CC(=O)O)C(=O)N[C@@H](CO)C(=O)NCC(=O)N[C@@H](Cc1ccc(O)cc1)C(=O)N[C@@H](Cc1ccc(O)cc1)C(=O)NCC(=O)O [A7P] (HELM PEPTIDE1{G.G.D.G.S.I.P.E.Y.F.N.R.P.M.H.I.H.D.W.Q.I.M.D.S.G.Y.Y.G}$PEPTIDE1,PEPTIDE1,1:R1-8:R3$$$V2.0; C-terminus assumed)	2	-3.4	Yes	–	–
CC[C@H](C)[C@@H]1NC(=O)[C@H](CO)NC(=O)CNC(=O)[C@H](CC(=O)O)NC(=O)CNC(=O)CNC(=O)CC[C@@H](C(=O)N[C@@H](Cc2ccc(O)cc2)C(=O)N[C@@H](Cc2ccccc2)C(=O)N[C@@H](CC(N)=O)C(=O)N[C@@H](CCCNC(=N)N)C(=O)N2CCC[C@H]2C(=O)N[C@@H](CC(N)=O)C(=O)N[C@@H](Cc2c[nH]cn2)C(=O)N[C@H](C(=O)N[C@@H](Cc2c[nH]cn2)C(=O)N[C@@H](CC(=O)O)C(=O)N[C@@H](Cc2c[nH]c3ccccc23)C(=O)N[C@@H](CCC(N)=O)C(=O)N[C@H](C(=O)N[C@@H](CCSC)C(=O)N[C@@H](CC(=O)O)C(=O)N[C@@H](CO)C(=O)NCC(=O)N[C@@H](Cc2ccc(O)cc2)C(=O)N[C@@H](Cc2ccc(O)cc2)C(=O)NCC(=O)O)[C@@H](C)CC)[C@@H](C)CC)NC(=O)[C@H](C)NC1=O [M14N] (HELM PEPTIDE1{G.G.D.G.S.I.A.E.Y.F.N.R.P.N.H.I.H.D.W.Q.I.M.D.S.G.Y.Y.G}$PEPTIDE1,PEPTIDE1,1:R1-8:R3$$$V2.0)	0.5 to 2	-4.7	Yes	–	–
